Assay results published in ChEMBL document CHEMBL5550154, “Novel biaryloxazolidinone derivatives with broad-spectrum antibacterial activity, favorable drug-like profiles and in vivo efficacy against linezolid-resistant Staphylococcusaureus” (Eur J Med Chem, 2024).
≈ marks a conversion by molar mass, not a printed value.

How the values were obtained:
Staphylococcus aureus [1] = assay: Antibacterial activity against linezolid-resistant Staphylococcus aureus assessed as inhibition of bacterial growth incubated for 16 to 20 hrs by CLSI based broth liquid microdilution method; type: functional; conditions: time 16-20 hrs
Staphylococcus aureus [2] = assay: Antibacterial activity against methicillin-sensitive Staphylococcus aureus assessed as inhibition of bacterial growth incubated for 16 to 20 hrs by CLSI based broth liquid microdilution method; type: functional; conditions: time 16-20 hrs
Enterococcus faecalis = assay: Antibacterial activity against linezolid-resistant Enterococcus faecalis assessed as inhibition of bacterial growth incubated for 16 to 20 hrs by CLSI based broth liquid microdilution method; type: functional; conditions: time 16-20 hrs
Staphylococcus aureus [3] = assay: Antibacterial activity against methicillin-resistant Staphylococcus aureus assessed as inhibition of bacterial growth incubated for 16 to 20 hrs by CLSI based broth liquid microdilution method; type: functional; conditions: time 16-20 hrs
Staphylococcus aureus [4] = assay: Antibacterial activity against Staphylococcus aureus ATCC29213 assessed as inhibition of bacterial growth incubated for 16 to 20 hrs by CLSI based broth liquid microdilution method; type: functional; conditions: time 16-20 hrs
[5] = AUC (0 to t) in Sprague-Dawley rat at 10 mg/kg, IG measured upto 24 hrs by LC-MS analysis; type: ADME, organism-based; conditions: in vivo, po
[6] = Elimination half life in Sprague-Dawley rat at 1 mg/kg, iv measured upto 24 hrs by LC-MS analysis; type: ADME, organism-based; conditions: in vivo, read-out: beta t1/2 (converted)
[7] = Solubility of compound at pH 7.4; type: physicochemical; conditions: buffer
[8] = Efflux ratio of apparent permeability across […] side in human Caco-2 cells; type: ADME, cell-based
[9] = Clearance in Sprague-Dawley rat at 1 mg/kg, iv measured upto 24 hrs by LC-MS analysis; type: ADME, organism-based; conditions: in vivo
[10] = Apparent volume of distribution in Sprague-Dawley rat at 1 mg/kg, iv measured upto 24 hrs by LC-MS analysis; type: ADME, organism-based; conditions: in vivo, read-out: Vz
[11] = Aqueous solubility of compound at pH 2 by LC-MS/MS analysis; type: physicochemical; conditions: buffer
[12] = Cmax in Sprague-Dawley rat at 10 mg/kg, IG measured upto 24 hrs by LC-MS analysis; type: ADME, organism-based; conditions: in vivo, po
[13] = Bioavailability in Sprague-Dawley rat at 10 mg/kg, IG measured upto 24 hrs by LC-MS analysis; type: ADME, organism-based; conditions: in vivo, po
[14] = Elimination half life in Sprague-Dawley rat at 10 mg/kg, IG measured upto 24 hrs by LC-MS analysis; type: ADME, organism-based; conditions: in vivo, po, read-out: beta t1/2 (converted)
[15] = AUC (0 to t) in Sprague-Dawley rat at 1 mg/kg, iv measured upto 24 hrs by LC-MS analysis; type: ADME, organism-based; conditions: in vivo
[16] = Aqueous solubility of compound at pH 7.4 by LC-MS/MS analysis; type: physicochemical; conditions: buffer
[17] = Tmax in Sprague-Dawley rat at 10 mg/kg, IG measured upto 24 hrs by LC-MS analysis; type: ADME, organism-based; conditions: in vivo, po
[18] = Solubility of compound at pH 2; type: physicochemical; conditions: buffer
[19] = Apparent permeability across apical to basolateral side in human Caco-2 cells; type: ADME, cell-based

| Structure (SMILES) | MIC (Staphylococcus aureus [1]) | MIC (Staphylococcus aureus [2]) | MIC (Enterococcus faecalis) | MIC (Staphylococcus aureus [3]) | MIC (Staphylococcus aureus [4]) | also measured |
| --- | --- | --- | --- | --- | --- | --- |
| O=C1O[C@@H](CF)CN1c1ccc(-c2ccc(/C=N/N3CCCCC3)nc2)c(F)c1 | 0.5 µg/mL (≈ 1.25 µM) | 0.25 µg/mL (≈ 0.624 µM) | > 16 µg/mL | 0.5 µg/mL (≈ 1.25 µM) | 0.25 µg/mL (≈ 0.624 µM) |  |
| Cc1cc(Br)cc(C(=O)N2CCN(/N=C/c3ccc(-c4ccc(N5C[C@H](CO)OC5=O)cc4F)cn3)CC2)c1 | 0.25 µg/mL (≈ 0.419 µM) | 0.125 µg/mL (≈ 0.21 µM) | 4 µg/mL (≈ 6.71 µM) | 0.25 µg/mL (≈ 0.419 µM) | 0.25 µg/mL (≈ 0.419 µM) |  |
| O=C1O[C@@H](CO)CN1c1ccc(-c2ccc(/C=N/Nc3ccc(Cl)nn3)nc2)c(F)c1 | 1 µg/mL (≈ 2.26 µM) | 0.5 µg/mL (≈ 1.13 µM) | 2 µg/mL (≈ 4.52 µM) | 0.5 µg/mL (≈ 1.13 µM) | 0.5 µg/mL (≈ 1.13 µM) |  |
| O=C1O[C@@H](CNS(=O)(=O)C2CC2)CN1c1ccc(-c2ccc(/C=N/N3CCCCC3)nc2)c(F)c1 | > 16 µg/mL | 0.25 µg/mL (≈ 0.498 µM) | > 16 µg/mL | 0.25 µg/mL (≈ 0.498 µM) | 0.25 µg/mL (≈ 0.498 µM) |  |
| O=C1O[C@@H](CO)CN1c1ccc(-c2ccc(/C=N/NC3=NCCN3)nc2)c(F)c1 | 0.5 µg/mL (≈ 1.26 µM) | 0.25 µg/mL (≈ 0.628 µM) | 2 µg/mL (≈ 5.02 µM) | 0.5 µg/mL (≈ 1.26 µM) | 0.5 µg/mL (≈ 1.26 µM) |  |
| O=C1O[C@@H](CO)CN1c1ccc(-c2ccc(/C=N/Nc3ccc(Cl)cn3)nc2)c(F)c1 | 0.5 µg/mL (≈ 1.13 µM) | 0.5 µg/mL (≈ 1.13 µM) | 8 µg/mL (≈ 18.1 µM) | 0.5 µg/mL (≈ 1.13 µM) | 0.5 µg/mL (≈ 1.13 µM) |  |
| Cc1cccc(N/N=C/c2ccc(-c3ccc(N4C[C@H](CO)OC4=O)cc3F)cn2)n1 | 0.5 µg/mL (≈ 1.19 µM) | 0.25 µg/mL (≈ 0.593 µM) | 1 µg/mL (≈ 2.37 µM) | 0.5 µg/mL (≈ 1.19 µM) | 0.5 µg/mL (≈ 1.19 µM) |  |
| CC(=O)NC[C@H]1CN(c2ccc(-c3ccc(/C=N/N4CCS(=O)(=O)CC4)nc3)c(F)c2)C(=O)O1 | 0.125 µg/mL (≈ 0.255 µM) | 0.125 µg/mL (≈ 0.255 µM) | 0.25 µg/mL (≈ 0.511 µM) | 0.125 µg/mL (≈ 0.255 µM) | 0.125 µg/mL (≈ 0.255 µM) | AUC(0-t) at 24 h [5]: 469 ng·h/mL; half-life [6]: 44.4 min; solubility [7]: 2.38 µM (≈ 1.17 µg/mL); Ratio [8]: 64; clearance [9]: 12.9 mL/min/kg; Vd [10]: 0.58 L/kg; solubility [11]: 70.4 µM (≈ 34.5 µg/mL); Cmax [12]: 140 ng/mL; bioavailability [13]: 3.6%; half-life [14]: 154 min; AUC(0-t) at 24 h [15]: 1290 ng·h/mL; solubility [16]: 38 µM (≈ 18.6 µg/mL); Tmax [17]: 30 min; solubility [18]: 70.4 µM (≈ 34.5 µg/mL); Papp A→B [19]: 0.27 ×10⁻⁶ cm/s |
| O=C1O[C@@H](CO)CN1c1ccc(-c2ccc(/C=N/Nc3ccncn3)nc2)c(F)c1 | 1 µg/mL (≈ 2.45 µM) | 1 µg/mL (≈ 2.45 µM) | 64 µg/mL (≈ 157 µM) | 1 µg/mL (≈ 2.45 µM) | 1 µg/mL (≈ 2.45 µM) |  |
| CS(=O)(=O)OC[C@H]1CN(c2ccc(-c3ccc(/C=N/N4CCCCC4)nc3)c(F)c2)C(=O)O1 | > 16 µg/mL | 0.008 µg/mL (≈ 0.0168 µM) | 1 µg/mL (≈ 2.1 µM) | 0.008 µg/mL (≈ 0.0168 µM) | 0.015 µg/mL (≈ 0.0315 µM) |  |
| CN1CCN(/N=C/c2ccc(-c3ccc(N4C[C@H](CO)OC4=O)cc3F)cn2)CC1 | 0.125 µg/mL (≈ 0.302 µM) | 0.125 µg/mL (≈ 0.302 µM) | 0.5 µg/mL (≈ 1.21 µM) | 0.125 µg/mL (≈ 0.302 µM) | 0.125 µg/mL (≈ 0.302 µM) |  |
| CS(=O)(=O)NC[C@H]1CN(c2ccc(-c3ccc(/C=N/N4CCCCC4)nc3)c(F)c2)C(=O)O1 | > 16 µg/mL | 0.125 µg/mL (≈ 0.263 µM) | 4 µg/mL (≈ 8.41 µM) | 0.125 µg/mL (≈ 0.263 µM) | 0.06 µg/mL (≈ 0.126 µM) |  |
